Assays:
[1] = system: bleomycin induced pulmonary fibrosis; test: Bleomycin induced pulmonary fibrosis in C57/B16 mice, trichrome histology, body weight, survival; type: in vivo
Protocol: Murine models of bleomycin induced fibrosis have been developed in order to study fibrotic disease progression.
There is an absence of airway epithelium in lower left compared to upper left (see arrow heads) and extensive collagen deposition (lower left). On the sixth day, either saline (upper right) or ICG-001 (5 mgs/Kg/day) was administered for 10 days after which the mice were sacrificed and sectioned. Of interest is the upper right (saline treatment) showing lack of normal airway epithelialization, extensive collagen deposition and intra-airway hypercellularity (fibroblasts and inflammatory influx).

E-Cadherin = test: Western blot for E-Cadherin in IPF patient fibroblasts; type: cell-based, human; settings: RPMI1640+10% FBS, 2 days, also true at the mRNA level
Protocol: (§1) Western blots for S100A4 (also know as FSP-1 or fibroblast specific protein-1) and E-Cadherin were performed on whole cell lysates.

S100A4 = test: RT-PCR for S100A4 in bleomycin treated mice; type: in vivo; settings: 5 mgs/Kg/day s.c., versus saline/saline mice
[2] = molecular target: β-catenin/p300 interaction (Homo sapiens, UniProt Q09472); settings: cited from earlier work
Sequence of β-catenin/p300 interaction (Q09472 whole entry): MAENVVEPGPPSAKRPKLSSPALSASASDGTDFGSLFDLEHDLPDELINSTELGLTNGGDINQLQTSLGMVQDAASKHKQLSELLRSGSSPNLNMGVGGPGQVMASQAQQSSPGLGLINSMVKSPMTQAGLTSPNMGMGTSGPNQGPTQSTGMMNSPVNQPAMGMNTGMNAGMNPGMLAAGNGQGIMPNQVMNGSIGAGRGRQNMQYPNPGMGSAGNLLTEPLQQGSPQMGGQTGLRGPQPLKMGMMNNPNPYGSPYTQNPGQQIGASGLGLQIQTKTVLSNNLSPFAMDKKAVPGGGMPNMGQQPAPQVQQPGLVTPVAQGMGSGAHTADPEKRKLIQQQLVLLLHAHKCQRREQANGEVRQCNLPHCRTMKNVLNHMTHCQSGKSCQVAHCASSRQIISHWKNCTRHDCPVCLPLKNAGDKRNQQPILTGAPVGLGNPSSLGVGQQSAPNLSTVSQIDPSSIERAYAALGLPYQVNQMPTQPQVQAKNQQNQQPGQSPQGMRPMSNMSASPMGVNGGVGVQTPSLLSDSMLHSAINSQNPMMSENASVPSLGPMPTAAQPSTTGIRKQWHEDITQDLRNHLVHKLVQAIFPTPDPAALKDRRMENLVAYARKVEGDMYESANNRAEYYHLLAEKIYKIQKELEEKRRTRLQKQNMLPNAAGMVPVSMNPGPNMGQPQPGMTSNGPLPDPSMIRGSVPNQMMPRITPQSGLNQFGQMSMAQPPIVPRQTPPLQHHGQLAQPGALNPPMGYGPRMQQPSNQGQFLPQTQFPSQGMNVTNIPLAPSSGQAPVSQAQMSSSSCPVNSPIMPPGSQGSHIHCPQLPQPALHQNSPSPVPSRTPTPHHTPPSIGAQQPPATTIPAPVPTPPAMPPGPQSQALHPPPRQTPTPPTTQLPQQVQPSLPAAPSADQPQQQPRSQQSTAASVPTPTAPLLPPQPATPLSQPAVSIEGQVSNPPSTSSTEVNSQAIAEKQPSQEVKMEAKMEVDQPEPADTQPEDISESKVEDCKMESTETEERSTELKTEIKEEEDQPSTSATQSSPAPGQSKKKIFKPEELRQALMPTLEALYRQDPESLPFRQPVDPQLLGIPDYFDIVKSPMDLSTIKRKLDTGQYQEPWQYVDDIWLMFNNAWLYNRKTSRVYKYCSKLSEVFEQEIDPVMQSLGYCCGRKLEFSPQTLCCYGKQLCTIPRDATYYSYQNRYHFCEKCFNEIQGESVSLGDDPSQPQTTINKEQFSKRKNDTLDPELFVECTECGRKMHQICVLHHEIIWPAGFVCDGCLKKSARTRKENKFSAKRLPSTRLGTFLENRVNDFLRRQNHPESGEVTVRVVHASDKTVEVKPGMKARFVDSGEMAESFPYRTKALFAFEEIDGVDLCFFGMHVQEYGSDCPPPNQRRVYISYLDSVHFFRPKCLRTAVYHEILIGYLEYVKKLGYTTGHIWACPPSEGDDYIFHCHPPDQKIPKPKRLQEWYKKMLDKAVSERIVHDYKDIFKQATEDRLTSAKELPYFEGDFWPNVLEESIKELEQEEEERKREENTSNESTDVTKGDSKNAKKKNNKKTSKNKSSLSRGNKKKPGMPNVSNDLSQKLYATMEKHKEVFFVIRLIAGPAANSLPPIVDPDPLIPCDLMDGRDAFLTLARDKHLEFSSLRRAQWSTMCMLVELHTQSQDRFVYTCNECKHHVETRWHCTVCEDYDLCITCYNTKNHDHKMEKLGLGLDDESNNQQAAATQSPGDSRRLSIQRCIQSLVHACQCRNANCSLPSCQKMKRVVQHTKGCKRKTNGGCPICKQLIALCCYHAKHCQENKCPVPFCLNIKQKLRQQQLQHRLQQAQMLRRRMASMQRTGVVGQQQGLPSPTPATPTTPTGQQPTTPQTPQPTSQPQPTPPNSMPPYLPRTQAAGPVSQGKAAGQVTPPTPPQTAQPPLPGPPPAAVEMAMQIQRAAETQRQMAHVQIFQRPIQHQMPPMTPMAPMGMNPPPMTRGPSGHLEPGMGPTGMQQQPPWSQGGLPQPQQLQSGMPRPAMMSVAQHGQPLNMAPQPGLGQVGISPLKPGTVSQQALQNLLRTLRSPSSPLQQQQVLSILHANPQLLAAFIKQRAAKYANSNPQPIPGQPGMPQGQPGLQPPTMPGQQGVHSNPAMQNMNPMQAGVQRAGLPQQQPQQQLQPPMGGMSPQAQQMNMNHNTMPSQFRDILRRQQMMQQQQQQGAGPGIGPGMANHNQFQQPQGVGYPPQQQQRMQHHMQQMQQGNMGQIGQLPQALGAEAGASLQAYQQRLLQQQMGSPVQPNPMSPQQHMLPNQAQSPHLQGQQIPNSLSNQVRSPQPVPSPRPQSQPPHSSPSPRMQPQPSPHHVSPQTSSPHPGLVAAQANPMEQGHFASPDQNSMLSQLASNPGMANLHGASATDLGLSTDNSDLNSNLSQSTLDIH

collagen1A2 = test: RT-PCR for collagen1A2 in bleomycin treated mice; type: in vivo; settings: 5 mgs/Kg/day s.c., versus saline/saline mice
S100A4 (FSP-1) = test: Western blot for S100A4 in IPF patient fibroblasts; type: cell-based, human; settings: RPMI1640+10% FBS, 2 days, also true at the mRNA level
Protocol: as §1

[3] = system: TCF/β-catenin transcription; test: Bat-Gal transgenic mice, bleomycin model, X-Gal/β-galactosidase read out of TCF/β-catenin transcription; type: in vivo; settings: 5 mg/Kg/day s.c., intratracheal bleomycin
Protocol: Furthermore, utilizing a specific inhibitor of Wnt/β-catenin/CBP driven transcription (ICG-001, 5 mg/Kg/day s.c.) Wnt/β-catenin was inhibited by >95% as judged by β-galactogidase activity. ICG-001 is among the structures described in detail below.
Using this murine model of pulmonary fibrosis in transgenic Bat-al mice, ICG-001 (5 mg/Kg/day) blocked >95% of bleomycin-induced TCF/βcatenin transcription.
These mice have a Beta-Galactosidase transgene driven by a TCF/Catenin driven promoter (i.e. a read out for activated Wnt/catenin signaling). The mice were given intratracheal saline or bleomycin and either treated with ICG-001 (5 mgs/Kg/day subcutaneously) or saline as vehicle control. The mice were sacrificed and the lungs sectioned and stained with X-Gal (blue color) A) intratracheal bleo+saline. B) intracheal bleo+ICG-001 C) saline+saline.
The dose was selected because ICG-001 reduces TCF/βCatenin driven O-Galactosidase expression >95% at 5 mgs/Kg/day.

[4] = molecular target: β-catenin/CBP interaction (Homo sapiens, UniProt Q92793); settings: cited from earlier work
Sequence of β-catenin/CBP interaction (Q92793 whole entry): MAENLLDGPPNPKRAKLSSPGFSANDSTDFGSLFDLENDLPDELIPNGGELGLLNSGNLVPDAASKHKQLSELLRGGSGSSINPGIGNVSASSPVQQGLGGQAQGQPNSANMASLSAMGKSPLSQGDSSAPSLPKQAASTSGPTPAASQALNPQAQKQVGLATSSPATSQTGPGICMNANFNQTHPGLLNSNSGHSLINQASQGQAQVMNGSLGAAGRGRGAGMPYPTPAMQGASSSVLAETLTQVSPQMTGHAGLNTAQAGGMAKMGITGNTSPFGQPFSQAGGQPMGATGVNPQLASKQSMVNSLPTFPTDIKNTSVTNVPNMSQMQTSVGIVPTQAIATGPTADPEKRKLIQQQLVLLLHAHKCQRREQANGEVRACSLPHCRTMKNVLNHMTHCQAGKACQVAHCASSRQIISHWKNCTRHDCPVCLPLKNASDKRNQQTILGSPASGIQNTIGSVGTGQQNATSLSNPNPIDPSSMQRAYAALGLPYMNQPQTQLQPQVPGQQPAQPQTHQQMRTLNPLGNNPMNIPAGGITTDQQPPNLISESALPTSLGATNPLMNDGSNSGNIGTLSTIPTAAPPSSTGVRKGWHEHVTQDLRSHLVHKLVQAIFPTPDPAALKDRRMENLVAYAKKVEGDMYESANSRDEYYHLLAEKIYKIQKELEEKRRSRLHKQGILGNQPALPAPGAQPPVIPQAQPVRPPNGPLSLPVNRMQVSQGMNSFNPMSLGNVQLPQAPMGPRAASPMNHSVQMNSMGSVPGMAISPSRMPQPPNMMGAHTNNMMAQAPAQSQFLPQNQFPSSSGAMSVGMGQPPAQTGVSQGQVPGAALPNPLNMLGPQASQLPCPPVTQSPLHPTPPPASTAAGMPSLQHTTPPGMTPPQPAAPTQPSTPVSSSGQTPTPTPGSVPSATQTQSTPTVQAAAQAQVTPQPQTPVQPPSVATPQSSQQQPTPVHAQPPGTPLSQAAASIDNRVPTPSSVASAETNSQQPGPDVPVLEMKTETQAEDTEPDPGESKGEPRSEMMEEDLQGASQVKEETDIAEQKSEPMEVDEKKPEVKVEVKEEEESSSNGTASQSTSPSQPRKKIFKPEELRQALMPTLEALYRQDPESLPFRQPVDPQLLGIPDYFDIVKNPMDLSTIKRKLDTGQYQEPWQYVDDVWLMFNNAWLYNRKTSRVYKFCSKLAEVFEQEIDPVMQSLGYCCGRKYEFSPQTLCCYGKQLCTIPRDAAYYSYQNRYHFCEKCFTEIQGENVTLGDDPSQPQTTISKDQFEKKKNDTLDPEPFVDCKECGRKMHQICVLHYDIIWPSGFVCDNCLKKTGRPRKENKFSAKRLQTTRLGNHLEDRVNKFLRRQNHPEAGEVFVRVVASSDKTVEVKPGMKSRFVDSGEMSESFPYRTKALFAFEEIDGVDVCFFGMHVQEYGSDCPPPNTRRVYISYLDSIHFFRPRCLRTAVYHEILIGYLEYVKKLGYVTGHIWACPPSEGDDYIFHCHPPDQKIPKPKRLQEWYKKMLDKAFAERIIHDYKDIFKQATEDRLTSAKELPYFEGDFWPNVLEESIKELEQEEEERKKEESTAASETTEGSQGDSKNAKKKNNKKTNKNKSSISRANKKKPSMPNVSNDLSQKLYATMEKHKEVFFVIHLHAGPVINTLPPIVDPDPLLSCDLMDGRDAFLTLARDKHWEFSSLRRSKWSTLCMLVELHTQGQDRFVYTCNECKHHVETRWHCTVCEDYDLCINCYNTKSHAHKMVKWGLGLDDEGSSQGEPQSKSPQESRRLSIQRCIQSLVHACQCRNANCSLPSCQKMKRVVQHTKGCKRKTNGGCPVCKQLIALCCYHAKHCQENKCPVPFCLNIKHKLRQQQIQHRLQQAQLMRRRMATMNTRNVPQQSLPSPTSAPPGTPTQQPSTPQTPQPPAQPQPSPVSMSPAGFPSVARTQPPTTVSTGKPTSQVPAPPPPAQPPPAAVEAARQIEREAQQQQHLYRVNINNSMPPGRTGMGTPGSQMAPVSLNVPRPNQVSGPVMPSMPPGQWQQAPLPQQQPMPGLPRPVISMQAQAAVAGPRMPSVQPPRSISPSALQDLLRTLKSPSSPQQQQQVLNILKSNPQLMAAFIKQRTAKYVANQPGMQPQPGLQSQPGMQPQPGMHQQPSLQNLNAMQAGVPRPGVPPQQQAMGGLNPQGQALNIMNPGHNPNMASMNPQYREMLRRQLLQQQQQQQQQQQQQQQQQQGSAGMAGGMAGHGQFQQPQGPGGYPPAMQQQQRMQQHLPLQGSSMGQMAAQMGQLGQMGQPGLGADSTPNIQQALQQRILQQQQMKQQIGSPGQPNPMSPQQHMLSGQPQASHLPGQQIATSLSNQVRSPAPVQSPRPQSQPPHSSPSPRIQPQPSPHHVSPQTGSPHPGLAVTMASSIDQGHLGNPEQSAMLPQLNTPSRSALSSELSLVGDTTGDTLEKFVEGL

[5] = 5 mgs/Kg/day for 10 days from the sixth day after intratracheal bleomycin

With O=C1[C@H](Cc2ccc(O)cc2)N2C(=O)CCN(C(=O)NCc3ccccc3)[C@H]2CN1Cc1cccc2ccccc12 [ICG-001] the “disease progression, as judged by reduced mortality, histopathology and endogenous gene expression” value ([1]; 5 mg/Kg/day, murine bleomycin model) was “not only halts but reverses disease progression”, the “airway histology (lung sections)” value [1, 5] was “the airway looks essentially normal” and the body weight [1, 5] was “regained normal body weight”. The “collagen levels (trichrome stain)” value [1, 5] was “normal collagen levels”, the survival ([1]; 5 mgs/Kg/day for 10 days from the sixth day after intratracheal bleomycin, untreated controls did not survive) was “survived” and the “E-cadherin expression (Western blot, whole cell lysates)” value (E-Cadherin) was “increased E-cadherin expression”. For the same compound, the “S100A4 message (RT-PCR)” value (S100A4) was “reduced essentially to negative control”, the “effect on β-catenin/p300 interaction” value [2] was “without interfering” and the “collagen1A2 message (RT-PCR)” value (collagen1A2) was “reduced essentially to negative control”. The “S100A4 expression (Western blot, whole cell lysates)” value (S100A4 (FSP-1)) was “decreased S100A4 expression”, the “inhibition of bleomycin-induced TCF/β-catenin transcription (β-galactosidase activity)” value [3] was greater than 95% and the “effect on β-catenin/CBP interaction” value [4] was “selectively blocks the β-catenin/CBP interaction”.

— patent US20080153743A1, “METHODS RELATING TO THE TREATMENT OF FIBROSIS” (UNIVERSITY OF WASHINGTON, priority 2005, published 2008)
